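In this assay, cells in 96-well plates receive the compound at five concentrations for 48 hours. Endpoints are linearly interpolated between the surrounding concentrations. At the GI50, growth is halved.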 The source made the active and inactive calls. Cut-off read from the data, not from the text of the source: active = GI50 up to about 1.1 µM and inactive = higher.
Key:
Test in all cases: NCI-60 cell line screen, 48 h
K562 = tested on: K562
HCT-116 = tested on: HCT-116
OVCAR-8 = tested on: OVCAR-8
Malme-3M = tested on: Malme-3M
HCT-15 = tested on: HCT-15
NCI/ADR-RES = tested on: NCI/ADR-RES
ACHN = tested on: ACHN
BT-549 = tested on: BT-549
SK-MEL-28 = tested on: SK-MEL-28
SF-295 = tested on: SF-295
LOX IMVI = tested on: LOX IMVI
RXF 393 = tested on: RXF 393
NCI-H460 = tested on: NCI-H460
SF-268 = tested on: SF-268
SK-OV-3 = tested on: SK-OV-3
Hs-578T = tested on: Hs-578T
786-0 = tested on: 786-0
SW-620 = tested on: SW-620
TK-10 = tested on: TK-10
RPMI-8226 = tested on: RPMI-8226
KM12 = tested on: KM12
IGROV-1 = tested on: IGROV-1
SR = tested on: SR
CCRF-CEM = tested on: CCRF-CEM
HT-29 = tested on: HT-29
OVCAR-4 = tested on: OVCAR-4
T47D = tested on: T47D
U-251 = tested on: U-251
COLO 205 = tested on: COLO 205
MDA-MB-231 = tested on: MDA-MB-231
DU-145 = tested on: DU-145
HOP-92 = tested on: HOP-92
MOLT-4 = tested on: MOLT-4
MDA-MB-435 = tested on: MDA-MB-435
NCI-H226 = tested on: NCI-H226
HCC 2998 = tested on: HCC 2998
SF-539 = tested on: SF-539
PC-3 = tested on: PC-3
UO-31 = tested on: UO-31
EKVX = tested on: EKVX
CAKI-1 = tested on: CAKI-1
MDA-N = tested on: MDA-N
HOP-62 = tested on: HOP-62
UACC-62 = tested on: UACC-62
MCF7 = tested on: MCF7
NCI-H522 = tested on: NCI-H522
A549 = tested on: A549
OVCAR-3 = tested on: OVCAR-3
SK-MEL-5 = tested on: SK-MEL-5
UACC-257 = tested on: UACC-257
SNB-19 = tested on: SNB-19
SN12C = tested on: SN12C
SK-MEL-2 = tested on: SK-MEL-2
NCI-H23 = tested on: NCI-H23
HL-60 = tested on: HL-60
OVCAR-5 = tested on: OVCAR-5

COC1(OC)CC(CO)(CNc2cc(Cl)nc(N)n2)C1
GI50 (K562): > 100 µM (inactive) | GI50 (HCT-116): > 100 µM (inactive) | GI50 (OVCAR-8): > 100 µM (inactive) | GI50 (Malme-3M): > 100 µM (inactive) | GI50 (HCT-15): > 100 µM | GI50 (NCI/ADR-RES): > 100 µM (inactive) | GI50 (ACHN): > 100 µM (inactive) | GI50 (BT-549): > 100 µM (inactive) | GI50 (SK-MEL-28): > 100 µM (inactive) | GI50 (SF-295): > 100 µM (inactive) | GI50 (LOX IMVI): > 100 µM (inactive) | GI50 (RXF 393): 55.7 µM (inactive) | GI50 (NCI-H460): > 100 µM (inactive) | GI50 (SF-268): > 100 µM (inactive) | GI50 (SK-OV-3): > 100 µM (inactive) | GI50 (Hs-578T): > 100 µM (inactive) | GI50 (786-0): > 100 µM (inactive) | GI50 (SW-620): > 100 µM (inactive) | GI50 (TK-10): > 100 µM (inactive) | GI50 (RPMI-8226): > 100 µM (inactive) | GI50 (KM12): > 100 µM (inactive) | GI50 (IGROV-1): > 100 µM (inactive) | GI50 (SR): > 100 µM (inactive) | GI50 (CCRF-CEM): > 100 µM (inactive) | GI50 (HT-29): > 100 µM (inactive) | GI50 (OVCAR-4): > 100 µM (inactive) | GI50 (T47D): 24.9 µM (inactive) | GI50 (U-251): > 100 µM (inactive) | GI50 (COLO 205): > 100 µM (inactive) | GI50 (MDA-MB-231): > 100 µM (inactive) | GI50 (DU-145): > 100 µM (inactive) | GI50 (HOP-92): > 10 µM (inactive) | GI50 (MOLT-4): > 100 µM (inactive) | GI50 (MDA-MB-435): > 100 µM (inactive) | GI50 (NCI-H226): > 100 µM (inactive) | GI50 (HCC 2998): > 100 µM (inactive) | GI50 (SF-539): > 100 µM (inactive) | GI50 (PC-3): > 100 µM (inactive) | GI50 (UO-31): > 100 µM (inactive) | GI50 (EKVX): 39.7 µM (inactive) | GI50 (CAKI-1): > 100 µM (inactive) | GI50 (MDA-N): > 100 µM (inactive) | GI50 (HOP-62): > 100 µM (inactive) | GI50 (UACC-62): > 100 µM (inactive) | GI50 (MCF7): > 100 µM (inactive) | GI50 (NCI-H522): > 100 µM (inactive) | GI50 (A549): > 100 µM (inactive) | GI50 (OVCAR-3): > 100 µM (inactive) | GI50 (SK-MEL-5): > 100 µM (inactive) | GI50 (UACC-257): 39.1 µM (inactive) | GI50 (SNB-19): > 100 µM (inactive) | GI50 (SN12C): > 100 µM (inactive) | GI50 (SK-MEL-2): > 100 µM (inactive) | GI50 (NCI-H23): > 100 µM (inactive) | GI50 (HL-60): > 100 µM (inactive) | GI50 (OVCAR-5): > 100 µM (inactive)
